Some results are limits rather than exact numbers.

The target of data set [1] is T1, Cyclin-dependent kinase 9 (Homo sapiens, UniProt P50750). Nature of the data set: Inhibition of CDK9 (unknown origin).
The nature of data set [2]: Inhibition of CDK2/CYCA (unknown origin). Details: species or system Homo sapiens.
Data set [3] has as its target Casein kinase I isoform alpha (Homo sapiens, UniProt P48729). Nature of the data set: Binding affinity to CK1alpha (unknown origin) assessed as dissociation constant.
Data set [4] concerns the target T1, Cyclin-dependent kinase 9. Nature of the data set: Binding affinity to CDK9 (unknown origin) assessed as dissociation constant.
The test system of data set [5] is MCF7. Nature of the data set: Antiproliferative activity against human MCF7 cells assessed as reduction in cell viability incubated for 72 hrs by MTT assay. It is filed as functional, cell-based. Conditions: MCF7, 72 h.
In data set [6] the test system is HCT-116. Nature of the data set: Antiproliferative activity against human HCT-116 cells assessed as reduction in cell viability incubated for 72 hrs by CCK-8 assay. The class given is functional, cell-based. Conditions: HCT-116, 72 h. In general terms: Tetrazolium dyes change colour on reduction, which living cells bring about.
The subject of data set [7] is K562. Nature of the data set: Antiproliferative activity against human K562 cells assessed as reduction in cell viability incubated for 72 hrs by CCK-8 assay. The class given is functional, cell-based. Particulars: K562, 72 h.
The target of data set [8] is Histone deacetylase 1 (Homo sapiens, UniProt Q13547). Nature of the data set: Inhibition of HDAC1 (unknown origin) by fluorescence based assay.
Histone deacetylase 1, sequence (Q13547 whole entry): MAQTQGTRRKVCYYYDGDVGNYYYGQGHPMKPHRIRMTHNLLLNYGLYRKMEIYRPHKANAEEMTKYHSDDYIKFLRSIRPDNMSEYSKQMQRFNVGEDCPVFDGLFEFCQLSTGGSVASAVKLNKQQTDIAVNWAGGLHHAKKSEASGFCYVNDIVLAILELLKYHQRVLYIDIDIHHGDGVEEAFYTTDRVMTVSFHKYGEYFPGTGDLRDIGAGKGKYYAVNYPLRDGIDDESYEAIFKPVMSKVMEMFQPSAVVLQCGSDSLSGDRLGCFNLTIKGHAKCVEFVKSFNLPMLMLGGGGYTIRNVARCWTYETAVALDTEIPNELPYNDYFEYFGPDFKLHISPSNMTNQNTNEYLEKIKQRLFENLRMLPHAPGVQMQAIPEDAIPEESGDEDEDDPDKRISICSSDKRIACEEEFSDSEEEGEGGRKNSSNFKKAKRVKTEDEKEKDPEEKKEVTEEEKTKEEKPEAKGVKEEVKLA
For data set [9], the target named is T1, Cyclin-dependent kinase 9. Nature of the data set: Inhibition of CDK9 (unknown origin) at 100 nM relative to control.
Data set [10] concerns the target CDK7/Cyclin H/MNAT1 (Homo sapiens, UniProt P50613). Nature of the data set: Inhibition of CDK7/CycH/MAT1 (unknown origin). It is filed as protein-complex assay.
The target of data set [11] is Cyclin-dependent kinase 2/cyclin E1 (Homo sapiens, UniProt P24941). Nature of the data set: Inhibition of CDK2/cyclin E1 (unknown origin). The class given is protein-complex assay.
For data set [12], the target named is Cyclin-dependent kinase 5 (Homo sapiens, UniProt Q00535).
Cyclin-dependent kinase 5, sequence (Q00535 whole entry): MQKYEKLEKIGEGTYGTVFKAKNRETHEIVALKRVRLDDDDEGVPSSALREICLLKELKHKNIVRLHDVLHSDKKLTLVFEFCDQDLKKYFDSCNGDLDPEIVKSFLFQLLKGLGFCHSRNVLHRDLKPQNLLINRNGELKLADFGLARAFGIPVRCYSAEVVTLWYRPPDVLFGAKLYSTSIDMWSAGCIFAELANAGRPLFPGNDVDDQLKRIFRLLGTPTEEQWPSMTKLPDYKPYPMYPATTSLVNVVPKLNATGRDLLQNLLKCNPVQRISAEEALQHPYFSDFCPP
In data set [13] the target is Cyclin-dependent kinase 7 (Homo sapiens, UniProt P50613). Nature of the data set: Inhibition of CDK7 (unknown origin).
Cyclin-dependent kinase 7, sequence (P50613 whole entry): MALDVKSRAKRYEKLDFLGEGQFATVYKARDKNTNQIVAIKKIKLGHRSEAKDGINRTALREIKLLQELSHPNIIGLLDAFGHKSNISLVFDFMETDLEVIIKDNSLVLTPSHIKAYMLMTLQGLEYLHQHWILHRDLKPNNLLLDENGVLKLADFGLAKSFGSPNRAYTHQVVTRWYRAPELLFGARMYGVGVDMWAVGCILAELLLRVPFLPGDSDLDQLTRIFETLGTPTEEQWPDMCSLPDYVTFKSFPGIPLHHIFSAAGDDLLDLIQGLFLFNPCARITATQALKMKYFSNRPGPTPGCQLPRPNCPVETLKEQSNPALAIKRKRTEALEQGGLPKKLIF
The test system of data set [14] is MV4-11. Nature of the data set: Cytotoxicity against human MV4-11 cells assessed as reduction in cell viability measured for 72 hrs by cellTiter-Glo assay. It is filed as functional, cell-based. Conditions: MV4-11, 72 h. Background: In ATP-based viability assays light output follows the ATP content of the culture.
Data set [15] relates to OCI-AML-3. Nature of the data set: Antiproliferative activity against human OCI-AML-3 assessed as reduction in cell viability incubated for 48 hrs by CellTiter-Glo cell vaibility assay. It is filed as functional, cell-based. Particulars: OCI-AML-3, 48 h.
In data set [16] the test system is MV4-11. Nature of the data set: Cytotoxicity against human MV4-11 cells assessed as cell growth reduction measured for 48 hrs by MTT assay. It is filed as functional.
The target of data set [17] is T2, CDK9/cyclin T1 (Homo sapiens, UniProt P50750). Nature of the data set: Binding affinity to CDK9/cyclin T1 (unknown origin) assessed as inhibition constant. The class given is protein-complex assay.
T2 sequence (O60563 whole entry): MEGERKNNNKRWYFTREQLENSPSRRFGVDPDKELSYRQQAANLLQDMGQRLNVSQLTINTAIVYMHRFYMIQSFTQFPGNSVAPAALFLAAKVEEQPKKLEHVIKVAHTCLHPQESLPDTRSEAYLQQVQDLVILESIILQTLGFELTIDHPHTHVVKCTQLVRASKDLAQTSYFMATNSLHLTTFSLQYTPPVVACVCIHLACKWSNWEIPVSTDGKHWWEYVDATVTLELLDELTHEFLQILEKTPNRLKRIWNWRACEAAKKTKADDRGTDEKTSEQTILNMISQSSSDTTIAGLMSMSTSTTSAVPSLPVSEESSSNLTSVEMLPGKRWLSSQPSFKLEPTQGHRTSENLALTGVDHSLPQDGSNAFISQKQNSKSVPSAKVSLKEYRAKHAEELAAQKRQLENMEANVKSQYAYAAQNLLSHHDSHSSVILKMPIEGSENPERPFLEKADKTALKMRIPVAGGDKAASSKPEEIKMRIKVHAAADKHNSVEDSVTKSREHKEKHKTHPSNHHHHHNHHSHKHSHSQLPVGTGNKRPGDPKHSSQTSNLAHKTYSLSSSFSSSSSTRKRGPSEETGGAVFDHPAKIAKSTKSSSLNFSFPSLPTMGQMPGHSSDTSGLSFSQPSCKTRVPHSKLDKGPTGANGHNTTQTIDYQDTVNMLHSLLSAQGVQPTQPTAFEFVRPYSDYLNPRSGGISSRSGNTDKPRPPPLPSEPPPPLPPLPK
T2 sequence (P50750 whole entry): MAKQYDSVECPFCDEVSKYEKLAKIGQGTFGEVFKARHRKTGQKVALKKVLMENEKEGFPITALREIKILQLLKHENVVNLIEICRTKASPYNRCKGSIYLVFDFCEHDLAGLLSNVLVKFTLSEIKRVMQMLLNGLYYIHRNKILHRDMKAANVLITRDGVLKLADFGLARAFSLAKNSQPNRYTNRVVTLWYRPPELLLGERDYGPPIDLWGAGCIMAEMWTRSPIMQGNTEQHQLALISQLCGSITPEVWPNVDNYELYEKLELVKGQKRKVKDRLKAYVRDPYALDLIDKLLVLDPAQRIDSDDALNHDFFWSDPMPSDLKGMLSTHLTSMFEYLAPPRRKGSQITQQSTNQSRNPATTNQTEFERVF
Data set [18] addresses Receptor-type tyrosine-protein kinase FLT3 (Homo sapiens, UniProt P36888, ITD). Nature of the data set: Binding affinity FLT3-ITD mutant (unknown origin) assessed as inhibition constant.
The target in data set [19] is T2, CDK9/cyclin T1. Nature of the data set: Inhibition of CDK9/cyclin T1 (unknown origin). The class given is protein-complex assay.
The test system of data set [20] is A498. Nature of the data set: Antiproliferative activity against human A498 cells assessed as reduction in cell viability incubated for 72 hrs by MTT assay. It is filed as functional, cell-based. Conditions: A498, 72 h.
Data set [21] is described as follows: Antiproliferative activity against human A-293 cells assessed as reduction in cell viability measured for 48 hrs by MTT assay. The class given is toxicity, cell-based. Particulars: A-293 (AD293) cells.
The target in data set [22] is T3, Protein cereblon/Cyclin-dependent kinase 9 (Homo sapiens) (UniProt P50750+Q96SW2). Nature of the data set: PROTAC activity at CRBN/CDK9 in human MV4-11 cells assessed as maximal degradation of CDK9 at 10 uM measured for 6 hrs by Western blot analysis. The class given is cell-based. For orientation: Immunoblotting shows a protein as a band on a membrane.
T3 sequence (P50750 whole entry, looked up): as the sequence (P50750 whole entry) above
T3 sequence (Q96SW2 whole entry, looked up): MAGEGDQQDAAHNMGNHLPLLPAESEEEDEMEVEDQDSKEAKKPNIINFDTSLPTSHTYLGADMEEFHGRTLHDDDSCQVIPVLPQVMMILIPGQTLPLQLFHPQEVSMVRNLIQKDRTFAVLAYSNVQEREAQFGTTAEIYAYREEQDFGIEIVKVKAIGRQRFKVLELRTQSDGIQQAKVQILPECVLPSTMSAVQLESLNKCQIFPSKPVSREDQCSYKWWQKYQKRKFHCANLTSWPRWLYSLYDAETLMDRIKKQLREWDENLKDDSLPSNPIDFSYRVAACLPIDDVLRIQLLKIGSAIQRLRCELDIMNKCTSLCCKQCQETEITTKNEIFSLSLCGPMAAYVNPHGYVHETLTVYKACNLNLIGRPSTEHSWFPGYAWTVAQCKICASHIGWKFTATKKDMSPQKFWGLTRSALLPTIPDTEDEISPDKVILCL
Data set [23] concerns the target T3, Protein cereblon/Cyclin-dependent kinase 9 (Homo sapiens). Nature of the data set: PROTAC activity at CRBN/CDK9 in human MV4-11 cells assessed as maximal degradation of CDK9 at 20 uM measured for 6 hrs by Western blot analysis. The class given is cell-based.
Data set [24] deals with Cyclin-dependent kinase 4 (Homo sapiens, UniProt P11802). Nature of the data set: Inhibition of CDK4 (unknown origin).
Cyclin-dependent kinase 4, sequence (P11802 whole entry): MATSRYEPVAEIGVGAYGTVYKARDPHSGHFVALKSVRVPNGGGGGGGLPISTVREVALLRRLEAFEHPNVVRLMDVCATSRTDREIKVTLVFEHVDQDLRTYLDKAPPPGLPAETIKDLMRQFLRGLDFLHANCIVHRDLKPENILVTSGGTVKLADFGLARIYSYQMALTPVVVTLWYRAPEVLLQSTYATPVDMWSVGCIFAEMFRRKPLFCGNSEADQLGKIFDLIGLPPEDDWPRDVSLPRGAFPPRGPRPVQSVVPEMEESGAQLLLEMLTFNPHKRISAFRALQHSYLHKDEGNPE
Data set [25] deals with T1, Cyclin-dependent kinase 9.
Data set [26] has as its system MOLM-13. Nature of the data set: Antiproliferative activity against human MOLM-13 cells assessed as reduction in cell viability incubated for 72 hrs by MTT assay. It is filed as functional, cell-based. Particulars: MOLM-13, 72 h.
Data set [27] has as its system L02. Nature of the data set: Antiproliferative activity against human L02 cells assessed as reduction in cell viability incubated for 72 hrs by MTT assay. Conditions: L02, 72 h. The class given is functional, cell-based.
Data set [28] is described as follows: Cytotoxicity against human HEK293T cells assessed as reduction in cell viability incubated for 72 hrs by MTT assay. It is filed as toxicity, cell-based, HEK-293T.
Data set [29] has as its system MOLM-13. Nature of the data set: cells. Particulars: Homo sapiens, MOLM-13, 96 h.
A short description of data set [30]: Downregulation of RNAP2 phosphorylation at serine 2 residue in human MV4-11 cells. It is filed as functional, cell-based.
For data set [31], the system named is MV4-11. Nature of the data set: Antiproliferative activity against human MV4-11 cells assessed as reduction in cell growth incubated for 48 hrs by MTT assay. Particulars: MV4-11, 48 h. The class given is functional, cell-based.

T1 sequence (P50750 whole entry): as the sequence (P50750 whole entry) above
Casein kinase I isoform alpha, sequence (P48729 whole entry, canonical isoform): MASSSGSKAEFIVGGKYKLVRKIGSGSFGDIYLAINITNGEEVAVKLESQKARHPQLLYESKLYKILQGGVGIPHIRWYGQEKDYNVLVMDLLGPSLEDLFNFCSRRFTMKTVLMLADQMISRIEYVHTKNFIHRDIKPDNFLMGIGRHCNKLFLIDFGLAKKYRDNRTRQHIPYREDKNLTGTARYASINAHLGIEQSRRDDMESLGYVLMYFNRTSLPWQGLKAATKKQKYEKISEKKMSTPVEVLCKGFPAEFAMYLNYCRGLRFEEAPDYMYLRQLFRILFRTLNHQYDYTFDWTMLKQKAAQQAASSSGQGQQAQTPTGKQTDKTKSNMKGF
Receptor-type tyrosine-protein kinase FLT3, sequence (P36888 whole entry, looked up, change not shown): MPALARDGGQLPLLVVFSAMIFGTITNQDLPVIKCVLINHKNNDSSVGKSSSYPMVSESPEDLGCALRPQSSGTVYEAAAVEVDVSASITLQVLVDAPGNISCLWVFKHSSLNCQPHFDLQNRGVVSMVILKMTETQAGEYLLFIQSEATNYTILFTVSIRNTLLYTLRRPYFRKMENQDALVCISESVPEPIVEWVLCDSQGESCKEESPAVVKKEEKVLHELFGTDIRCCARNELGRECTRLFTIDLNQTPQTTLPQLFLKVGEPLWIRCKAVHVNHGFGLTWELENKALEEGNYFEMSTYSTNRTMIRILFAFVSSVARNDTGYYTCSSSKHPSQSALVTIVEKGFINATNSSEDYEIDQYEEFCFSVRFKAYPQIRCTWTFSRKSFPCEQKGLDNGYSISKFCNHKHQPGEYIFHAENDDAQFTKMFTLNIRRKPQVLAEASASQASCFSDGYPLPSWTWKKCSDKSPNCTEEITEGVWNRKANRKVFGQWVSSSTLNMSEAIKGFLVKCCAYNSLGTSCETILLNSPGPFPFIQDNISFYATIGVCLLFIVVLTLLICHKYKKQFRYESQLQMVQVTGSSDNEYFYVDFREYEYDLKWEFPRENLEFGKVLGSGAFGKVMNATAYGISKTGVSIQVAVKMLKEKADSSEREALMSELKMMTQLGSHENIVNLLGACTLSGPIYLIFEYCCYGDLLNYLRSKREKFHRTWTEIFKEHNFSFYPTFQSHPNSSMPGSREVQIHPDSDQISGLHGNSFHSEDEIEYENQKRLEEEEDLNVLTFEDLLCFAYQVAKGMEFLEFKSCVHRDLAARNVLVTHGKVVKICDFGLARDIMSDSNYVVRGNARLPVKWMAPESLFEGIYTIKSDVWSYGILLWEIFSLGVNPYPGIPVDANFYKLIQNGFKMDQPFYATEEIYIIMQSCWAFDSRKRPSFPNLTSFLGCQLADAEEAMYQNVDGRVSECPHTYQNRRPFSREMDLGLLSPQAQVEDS

The IC50 is the midpoint of a concentration-inhibition curve. `COc1ccccc1-c1ccnc(Nc2ccc3c(c2)CC(=O)C(C(C)=O)C3C)n1` (stereo unspecified) registered an IC50 in data set [1] of 184 nM.
`COc1cc(O)c2c(=O)cc(-c3ccc(N4CCN(C)CC4)cc3)oc2c1N1CCNCC1` registered a half-maximal inhibitory concentration (IC50) in data set [2] of 1180 nM.
As a reminder, the Kd is the constant that tells how readily two partners part at equilibrium. For `Cn1ncc(-c2nc(NC3CCC(N)CC3)ncc2F)c1CC1CC1` (stereo unspecified), the Kd turned out to be 9.8 nM in data set [3] and 5.4 nM in data set [4].
On to `N[C@H]1CCN(c2c3c(nc4ccc(-c5ccnc(NC(=O)C6CC6)n5)cc24)CCCC3)C1`, for which the IC50 in [1] is 2.23 nM.
On to `c1ccc(CNc2c(-c3ccncc3)nc3cnccn23)cc1`, for which the IC50 in data set [5], in data set [6] and in data set [7] was 7000 nM in each case.
As usually defined, the inhibition is the percentage by which the read-out fell short of the control. A higher inhibition goes with a response far below the control. Consider `Nc1ccccc1NC(=O)c1ccc(NC(=O)c2n[nH]cc2NC(=O)c2c(Cl)cccc2Cl)cc1`, for which half-maximal inhibition in [8] (IC50) required 98 nM. Further, the inhibition in [9] was found to be 98.3%.
`O=c1cc(-c2cccc(O)c2)oc2c1ccc1occc12`: the figures for the IC50 in data set [10] and in [11] were 93 nM and more than 20000 nM, respectively.
In data set [1], `COC[C@H](C)N[C@H]1CC[C@H](Nc2cc(-c3cccc(NCC4(C#N)CCOCC4)n3)c(Cl)cn2)CC1` had an IC50 of less than 0.514 nM.
Turning to `COc1ccccc1-c1cccc(Nc2cccc(N3CCCNCC3)c2)n1`, the values for the IC50 in data set [1] and in data set [12] were 16 nM and 574 nM, respectively.
With `CCN1C(=O)COc2c(CN3CCOCC3)cc(Nc3nccc(-c4cccnc4)n3)cc21`, the IC5 in [1] came out at 6.7 nM.
`COCCN[C@H]1CC[C@H](Nc2cc(-c3csc(NCC4(C#N)CCOCC4)n3)c(Cl)cn2)CC1`: the 50% inhibitory concentration (IC50) in data set [13] was 172 nM; in data set [1], 2 nM; in data set [14], 12 nM.
On to `Cc1ccc([N+](=O)[O-])cc1S(=O)(=O)N(C)/N=C/c1cnc2ccc(Br)cn12`, for which the IC50 in data set [15] came out at 220 nM.
For the compound `CCC(CC)c1cc(N[C@H]2CC[C@H](N)C2)n2nccc2n1` [ISTISOCICLIB], the GR50 in [16] was 0.288 µM.
As a reminder, the Ki is a measure of affinity in units of concentration, obtained from inhibition or displacement. Turning to `Cc1cnc(NC2CCC(N)CC2)nc1-c1cnc2ccc(-c3ccccc3)cn12` (stereo unspecified), the Ki turned out to be 8 nM in [17] and 13 nM in [18].
On to `Cn1ncc(-c2nc(NC3CCC(N)CC3)ncc2Cl)c1CC1CC1` (stereo unspecified), for which the values for the Kd in data set [3] and in data set [4] were 5.3 nM and 4 nM, respectively.
With `CN(C)C/C=C\C(=O)Nc1ccc(C(=O)N[C@H]2CC[C@H](Nc3cc(-c4cccc(NCc5cccc(F)c5)n4)c(Cl)cn3)CC2)cc1`, the half-inhibitory concentration (IC50) in data set [19] is 196 nM; in data set [20] it was less than 700 nM. Further, the IC50 at 48 h in data set [21] was 3230 nM.
One may read the Emax as the greatest response seen or fitted, relative to the assay's reference. As to `O=C1CCC(N2C(=O)c3cccc(OCCCCCOc4ccc(CC(=O)Nc5cc(C6CCC6)[nH]n5)cc4)c3C2=O)C(=O)N1` (stereo unspecified), the figures for the Emax in data set [22] and in [23] were 56% and 65%, respectively.
With `CC(C)c1c2cc(-c3ccnc(Nc4ccc5c(N6CCN(C)CC6)ncnc5c4)n3)ccc2nn1C`, the IC50 in [24] is 2.2 nM; in data set [25], 1.9 nM.
With `N[C@H]1CC[C@H](Nc2cc(-c3cccc(NCc4cccc(F)c4)n3)c(Cl)cn2)CC1`, the results for the IC50 in [1] and in [20] were less than 0.4 nM and 57 nM, respectively. For the same compound, in data set [21], the IC50 at 48 h is 76 nM.
In the case of `COc1cc(F)ccc1-c1cc(Nc2cc(C[S@](C)(=N)=O)ccn2)ncc1F`, the IC50 in data set [26] amounted to 29 nM.
For the compound `COc1ccc(C(=O)Nc2cc(-c3ccnc(N4CCC(O)CC4)c3)ccn2)cc1`, the IC50 in data set [27] was more than 800 nM. Also, the IC50 at 72 h in data set [28] is more than 800 nM.
For the compound `COc1cc(F)ccc1-c1ncnc(Nc2cccc(C[S@](C)(=N)=O)c2)n1` [ATUVECICLIB], the half-maximal inhibitory concentration (IC50) in data set [29] came to 310 nM.
`COc1ccccc1-c1cc(Nc2cccc(CS(N)(=O)=O)c2)ncn1` showed an IC50 in [2] of 2440 nM.
In the case of `CC(=O)N[C@H]1CCC[C@@H](C(=O)Nc2cc(-c3cnn4c3CC(C)(C)C4)c(Cl)cn2)C1`, the IC50 was determined as 13 nM in data set [30] and 13.7 nM in data set [31].
As for `COc1ccc(Nc2c(-c3ccoc3)nc3cnccn23)cc1`, the IC50 in [5], in [6] and in data set [7] was 11600 nM each time.
`CN(C)C(=O)c1cc2cnc(Nc3ccc(S(N)(=O)=O)cc3)nc2n1C1CCCC1` returned an IC5 in [24] of 12 nM.

(Values after ChEMBL document CHEMBL5543128, “Recent Discovery and Development of Inhibitors that Target CDK9 and Their Therapeutic Indications” (J Med Chem, 2024).)
